Read-outs that look alike come from different tables or passages of the source. Starred links: 1 amine or outer side, 2 acyl side, 3 side chain; linkers in the order of their positions; H or OH if unused. Non-standard residues stand in square brackets, D forms with d. Residues, ends and D or L forms follow the SMILES beside them. *: point of attachment. d(aThr) = C[C@@H](O)[C@@H](N)C(=O)O; Hydrocinnamoyl = O=C(CCc1ccccc1)*; AllylGly = C=CC[C@H](N)C(=O)O; d(hSer) = N[C@H](CCO)C(=O)O; ΔPro = O=C(O)[C@@H]1C=CCN1; Isovaleryl = CC(C)CC(=O)*; Pra = C#CC[C@H](N)C(=O)O; dDap = NC[C@@H](N)C(=O)O; Aze = O=C(O)[C@@H]1CCN1; Cbz = O=C(OCc1ccccc1)*; CO = O=C([*:1])[*:2]; NHBn = c1ccc(CN*)cc1; Moc = COC(=O)* Bounds are passed on as bounds.

In experiment [1] the target is Urokinase (Abbokinase) (Homo sapiens, UniProt P00749). In words: Urokinase chromogenic substrate (S-2444) IC50 assay.
Method: The buffer used for all assays was HBSA (10 mM HEPES, pH 7.5, 150 mM sodium chloride, 0.1% bovine serum albumin).
The initial velocity of chromogenic substrate hydrolysis was measured by the change in absorbance at 405 nm using a Thermo Max® Kinetic Microplate Reader over a 5 minute period in which less than 5% of the added substrate was utilized.
The assay buffer was HBS (10mM HEPES, 150mM sodium chloride pH 7.4) with 0.1% BSA.
The target in experiment [2] is T1, Human rt-PA (Activase) (Homo sapiens, UniProt P00750).
T1 construct: purchased Genentech Inc
Put plainly: Recombinant tissue plasminogen activator (rt-PA) chromogenic assay. The class given is biochemical. Particulars: 30 minute preincubation, HBSA buffer; read-out: tPA IC50. The procedure: rt-PA catalytic activity was determined using the substrate, Pefachrome t-PA (CH3SO2-D-hexahydrotyrosine-glycyl-L-arginine-p-nitroaniline, obtained from Pentap harm Ltd.). The substrate was made up in deionized water followed by dilution in HBSA prior to the assay in which the final concentration was 500 micromolar (about 3-times Km). Human rt-PA (Activase®) was obtained from Genentech Inc. The enzyme was reconstituted in deionized water and diluted into HBSA prior to the assay in which the final concentration was 1.0 nM.

Experiment [3] has as its target T2, human plasmin (Homo sapiens, UniProt P00747).
T2 construct: purchased Enzyme Research Laboratories, Inc
In words: Plasmin chromogenic substrate (S-2366) assay. To be noted: 30 minute preincubation, HBSA buffer. The class given is biochemical. Here is the method:
The substrate was made up in deionized water followed by dilution in HBSA prior to the assay in which the final concentration was 300 micromolar (about 2.5-times Km). Purified human plasmin was obtained from Enzyme Research Laboratories, Inc. The enzyme was diluted into HBSA prior to assay in which the final concentration was 1.0 nM.

The subject of experiment [4] is bFGF-induced angiogenesis on the CAM of chick embryos. In words: Chicken CAM model of bFGF-induced angiogenesis. To be noted: for Angiogenic Index / # of Blood Vessel Branch Points: bFGF; for Angiogenic Index: difference in branch points vs untreated control embryos; for # of Blood Vessel Branch Points: single administration. The class given is in vivo. The text has this:
A test compound can either be added to the filter disc that contains the angiogenesis inducer, be placed directly on the membrane or be administered systemically. The extent of new blood vessel formation in the presence and/or absence of test compound can be compared using this model. The formation of fewer new blood vessels in the presence of a test compound would be indicative of anti-angiogenesis activity.
The chicken CAM (chick embryo chorioallantoic membrane) model, a standard angiogenesis assay, was used to evaluate the ability of Compound 1 to inhibit angiogenesis. This model is an established model for evaluation of activity of a test compound to affect formulation of new blood vessels.
A filter disc saturated with a 0.5 μg/ml solution of basic fibroblast growth factor (bFGF) was placed on the CAM of 10 day old chick embryos to induce angiogenesis. Twenty four hours later, 0 to 1 μg of Compound 1, in a total volume of 100 μl of sterile PBS, was injected intravenously into the embryo. Approximately 48 hours later, the embryos were sacrificed and the filter discs and surrounding CAM tissue were excised for analysis. Angiogenesis was quantitated by counting the number of blood vessel branch points within the confined region of the filter [Brooks, P.C., et al, Methods in Molecular Biology 120:257-269 (1999)]. The angiogenic index is defined as the difference in the number of blood vessel branch points between an experimental group and the untreated, control embryos. Each experimental group contained 8 to 10 chicken embryos. A single administration of 1 μg of Compound 1 inhibited angiogenesis by 92% in this experiment.

The test system of experiment [5] is human fibrosarcoma cells (HT 1080). Put plainly: Growth of human HT1080 tumor cells in chick embryo model. The class given is in vivo, chicken. Particulars: for Tumor wet weight: 7 days incubation. The procedure:
A chicken embryo model was used to evaluate the activity of Compound 1 to inhibit the growth of human tumor cells in vivo. A single cell suspension of human fibrosarcoma cells (HT 1080), containing 4×10^5 cells in a total volume of 40 μl, was applied to 10 day old chick embryos as described by Brooks, et al (“Brooks, P.C., et al, “Integrin αvβ3 Antagonists Promote Tumor Regression by Inducing Apoptosis of Angiogenic Blood Vessels”, Cell 79:1157-1164 (1994)). Twenty-four hours later 0 to 10 μg of Compound 1 was injected intravenously into the embryos. Following this single administration of compound, control and treated embryos were incubated for a total of 7 days and then sacrificed. Tumors were excised, trimmed free of surrounding CAM tissue, and weighed. Each experimental group contained 10 to 12 chicken embryos. A single dose of 10 μg of Compound 1 reduced tumor weight by approximately 65%.

The mark [6] stands for this setting: read-out: uPA IC50, 30 minute preincubation, HBSA buffer.

T2 sequence (P00747 581-810 limits assumed): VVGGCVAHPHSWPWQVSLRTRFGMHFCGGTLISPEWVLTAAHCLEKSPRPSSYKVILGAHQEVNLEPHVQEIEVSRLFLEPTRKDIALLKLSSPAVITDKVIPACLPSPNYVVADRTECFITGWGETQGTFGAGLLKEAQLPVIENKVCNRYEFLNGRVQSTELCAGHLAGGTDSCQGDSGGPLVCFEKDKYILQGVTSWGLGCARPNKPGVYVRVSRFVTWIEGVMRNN
T2 sequence (P00747 97-580 partner limits assumed): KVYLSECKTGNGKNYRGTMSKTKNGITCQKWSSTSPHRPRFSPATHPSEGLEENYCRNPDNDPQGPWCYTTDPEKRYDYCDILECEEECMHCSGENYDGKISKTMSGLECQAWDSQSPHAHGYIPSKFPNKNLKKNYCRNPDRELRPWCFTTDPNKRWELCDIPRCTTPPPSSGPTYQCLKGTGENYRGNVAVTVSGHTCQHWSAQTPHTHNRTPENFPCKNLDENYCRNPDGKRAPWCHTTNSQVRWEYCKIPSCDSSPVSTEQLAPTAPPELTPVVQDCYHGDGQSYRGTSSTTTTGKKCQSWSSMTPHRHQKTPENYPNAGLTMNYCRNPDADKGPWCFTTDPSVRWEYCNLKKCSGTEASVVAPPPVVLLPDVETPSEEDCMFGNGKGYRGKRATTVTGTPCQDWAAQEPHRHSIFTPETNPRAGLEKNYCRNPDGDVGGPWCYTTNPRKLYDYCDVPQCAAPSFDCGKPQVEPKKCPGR
T1 sequence (P00750 36-562): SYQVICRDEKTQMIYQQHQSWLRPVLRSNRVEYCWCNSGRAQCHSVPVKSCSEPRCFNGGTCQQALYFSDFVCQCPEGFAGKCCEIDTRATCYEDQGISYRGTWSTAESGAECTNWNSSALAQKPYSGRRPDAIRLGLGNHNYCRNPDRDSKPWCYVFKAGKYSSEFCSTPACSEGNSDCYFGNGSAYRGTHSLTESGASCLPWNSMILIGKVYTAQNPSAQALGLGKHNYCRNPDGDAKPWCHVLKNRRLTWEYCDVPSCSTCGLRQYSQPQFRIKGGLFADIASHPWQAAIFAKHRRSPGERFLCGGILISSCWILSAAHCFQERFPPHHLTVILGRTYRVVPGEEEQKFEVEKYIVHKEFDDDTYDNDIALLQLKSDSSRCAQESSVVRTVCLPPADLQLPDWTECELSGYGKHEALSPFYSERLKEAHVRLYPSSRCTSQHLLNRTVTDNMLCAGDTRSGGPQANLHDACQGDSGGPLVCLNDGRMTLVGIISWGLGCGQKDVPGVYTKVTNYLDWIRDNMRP

Take `CC(C)COC(=O)N[C@H](CO)C(=O)N[C@@H](C)C(=O)NC(CCCN=C(N)N)C(=O)C(=O)NCCc1ccccc1` (stereo partly drawn) [Compound 30, i-butoxycarbonyl-D-Ser-Ala-Arg-CO-phenethylamide]: the IC50 in experiment [1] (setting [6]) was 100 to 250 nM; in experiment [2] it was > 2500 nM; in experiment [3] it was 250 to 2500 nM.

Consider `N=C(N)NCCC[C@@H](C=O)NC(=O)[C@@H]1C=CCN1C(=O)[C@@H](CO)NC(=O)OCc1ccccc1` [Compound 50, benzyloxycarbonyl-D-seryl-L-3,4-dehydroprolyl-argininal] (Cbz-[dS]-[ΔPro]-Arg-aldehyde), for which the results for the IC50 in experiment [1], in experiment [2] and in experiment [3] were < 100 nM, > 2500 nM and 100 to 250 nM, respectively.

`C[C@H](NC(=O)[C@@H](CNC(=O)OCc1ccccc1)NC(=O)OCc1ccccc1)C(=O)N[C@H](C=O)CCCNC(=N)N` [Compound 42, N-α-N-β-dibenzyloxycarbonyl-D-2,3-diaminopropionyl-alanyl-argininal] (Cbz-[dDap](Cbz)-Ala-Arg-aldehyde): the IC50 in experiment [1] is 100 to 250 nM; in experiment [2] it was > 2500 nM; in experiment [3] it was 100 to 250 nM.

Take `C=CC[C@H](NC(=O)[C@@H](CO)NC(=O)OCc1ccccc1)C(=O)N[C@H](C=O)CCCNC(=N)N` [Compound 52, benzyloxycarbonyl-D-seryl-L-allylglycyl-argininal] (Cbz-[dS]-[AllylGly]-Arg-aldehyde): the half-maximal inhibitory concentration (IC50) in experiment [1] was 100 to 250 nM; in experiment [2] it was > 2500 nM; in experiment [3], 250 to 2500 nM.

For the molecule `C#CC[C@H](NC(=O)[C@@H](CO)NC(=O)OCc1ccccc1)C(=O)N[C@H](C=O)CCCNC(=N)N` [Compound 51, benzyloxycarbonyl-D-seryl-L-propargylglycyl-argininal] (Cbz-[dS]-[Pra]-Arg-aldehyde), the IC50 in experiment [1] is < 100 nM; in experiment [2] it was > 2500 nM; in experiment [3], 250 to 2500 nM.

Regarding `C[C@H](NC(=O)[C@@H](CNC(=O)CCc1ccccc1)NC(=O)OCc1ccccc1)C(=O)N[C@H](C=O)CCCNC(=N)N` [Compound 41, N-α-benzyloxycarbonyl-N-β-2-phenylethylcarbonyl-D-2,3-diaminopropionyl-alanyl-argininal] (Cbz-[dDap](Hydrocinnamoyl)-Ala-Arg-aldehyde), the half-maximal inhibitory concentration (IC50) in experiment [1] is 250 to 2500 nM; in experiment [2] it was > 2500 nM; in experiment [3] it was 250 to 2500 nM.

In the case of `N=C(N)NCCC[C@@H](C=O)NC(=O)[C@@H]1CCCN1C(=O)[C@@H](CCO)NC(=O)OCc1ccccc1` [Compound 27, benzyloxycarbonyl-D-homoseryl-prolyl-argininal] (Cbz-[d(hSer)]-Pro-Arg-aldehyde), the figures for the IC50 in experiment [1], in experiment [2] and in experiment [3] were 100 to 250 nM, > 2500 nM and < 100 nM, respectively.

In the case of `C[C@H](NC(=O)[C@@H](CO)NCCCc1ccccc1)C(=O)N[C@H](C=O)CCCNC(=N)N` [Compound 32, N-α-(3-Phenylpropyl)-D-seryl-alanyl-argininal], the IC50 was < 100 nM in experiment [1] (setting [6]), > 2500 nM in experiment [2] and 250 to 2500 nM in experiment [3].

On to `CC(C)CC(=O)N[C@H](CO)C(=O)N[C@@H](C)C(=O)N[C@H](C=O)CCCNC(=N)N` [Compound 39, isovaleryl-D-seryl-alanyl-argininal] (Isovaleryl-[dS]-Ala-Arg-aldehyde), for which the values for the IC50 in experiment [1], in experiment [2] and in experiment [3] were 250 to 2500 nM, > 2500 nM and > 2500 nM, respectively.

`COC(=O)NC[C@@H](NC(=O)OCc1ccccc1)C(=O)N[C@@H](C)C(=O)N[C@H](C=O)CCCNC(=N)N` [Compound 43, N-α-benzyloxycarbonyl-N-β-methyloxycarbonyl-D-2,3-diaminopropionyl-alanyl-argininal] (Cbz-[dDap](Moc)-Ala-Arg-aldehyde): the IC50 in experiment [1] was 250 to 2500 nM; in experiment [2], > 2500 nM; in experiment [3], 250 to 2500 nM.

For the molecule `C[C@H](NC(=O)[C@@H](CO)NS(=O)(=O)Cc1ccccc1)C(=O)N[C@H](C=O)CCCN=C(N)N` [Compound 29, Benzylsulfonyl-D-Ser-Ala-Arg-al], the IC50 was < 100 nM in experiment [1] (setting [6]), > 2500 nM in experiment [2] and 250 to 2500 nM in experiment [3].

Consider `C[C@H](NC(=O)[C@@H](CO)NC(=O)OCc1ccccc1)C(=O)N[C@H](C=O)CCCNC(=N)N` [Compound 2, Benzyloxycarbonyl-D-seryl-alanyl-argininal] (Cbz-[dS]-Ala-Arg-aldehyde), for which the IC50 is < 100 nM in experiment [1], 250 to 2500 nM in experiment [2] and 250 to 2500 nM in experiment [3].

Regarding `CC(C)OC(=O)N[C@H](CO)C(=O)N[C@@H](C)C(=O)N[C@H](C=O)CCCNC(=N)N` [Compound 40, isopropyloxycarbonyl-D-seryl-alanyl-argininal], the IC50 in experiment [1] was < 100 nM; in experiment [2] it was > 2500 nM; in experiment [3], > 2500 nM.

Consider `C[C@H](NC(=O)[C@H](NC(=O)OCc1ccccc1)[C@@H](C)O)C(=O)N[C@H](C=O)CCCNC(=N)N` [Compound 19, benzyloxycarbonyl-D-allothreonyl-alanyl-argininal] (Cbz-[d(aThr)]-Ala-Arg-aldehyde), for which the IC50 in experiment [1] was < 100 nM; in experiment [2], > 2500 nM; in experiment [3], 250 to 2500 nM.

In the case of `C[C@H](NC(=O)[C@@H](CO)NC(=O)OCC1CCCCC1)C(=O)N[C@H](C=O)CCCNC(=N)N` [Compound 36, cyclohexylmethyloxycarbonyl-D-seryl-alanyl-argininal], the IC50 was < 100 nM in experiment [1], > 2500 nM in experiment [2] and 250 to 2500 nM in experiment [3].

As to `N=C(N)NCCC[C@@H](C=O)NC(=O)[C@@H]1CCN1C(=O)[C@@H](CO)NC(=O)OCc1ccccc1` [Compound 12, benzyloxycarbonyl-D-seryl-L-azetidine-2-carbonyl-argininal] (Cbz-[dS]-[Aze]-Arg-aldehyde), the IC50 in experiment [1] is < 100 nM; in experiment [2] it was > 2500 nM; in experiment [3], 250 to 2500 nM.

As to `C[C@H](NC(=O)[C@@H](CO)NS(=O)(=O)CCCc1ccccc1)C(=O)N[C@H](C=O)CCCNC(=N)N` [Compound 48, 3-phenylpropylsulfonyl-D-seryl-alanyl-argininal], the IC50 was < 100 nM in experiment [1], > 2500 nM in experiment [2] and 250 to 2500 nM in experiment [3].

As to `CC(C)COC(=O)N[C@H](CO)C(=O)N[C@@H](C)C(=O)N[C@H](C=O)CCCNC(=N)N` [Compound 1, Isobutyloxycarbonyl-D-seryl-L-alanyl-argininal], the “Angiogenic Index” value in experiment [4] (0.001 μg Compound 1) is on record as 22; in experiment [4] (0.01 μg Compound 1) it was 8; in experiment [4] (1.0 μg Compound 1), 2. The “# of Blood Vessel Branch Points” value in experiment [4] (0.001 μg Compound 1 intravenously) is 35 +/− 5; in experiment [4] (0.01 μg Compound 1 intravenously), 21 +/− 5; in experiment [4] (1.0 μg Compound 1 intravenously), 15 +/− 1. In experiment [4] (single administration of 1 μg, intravenously), this molecule gave an inhibition of angiogenesis of 92%. The Tumor wet weight in experiment [5] (1 μg single intravenous dose) was 174 ± 25 mg; in experiment [5] (10 μg single intravenous dose), 97 ± 15 mg. Moreover, the “reduction of tumor weight” value in experiment [5] (single dose of 10 μg) is given as “approximately 65%”. Besides, the IC50 in experiment [1] is < 100 nM; in experiment [2], > 2500 nM; in experiment [3], 250 to 2500 nM.

Take `C[C@H](NC(=O)[C@@H](CO)NC(=O)NCc1ccccc1)C(=O)N[C@H](C=O)CCCNC(=N)N` [Compound 38, benzylazacarbonyl-D-seryl-alanyl-argininal] ({NHBn-CO}-[dS]-Ala-Arg-aldehyde): the concentration for half-maximal inhibition (IC50) in experiment [1] was 100 to 250 nM; in experiment [2] it was > 2500 nM; in experiment [3], > 2500 nM.

These data come from patent US6432922B1 (Corvas International, Inc., priority 1998, dated 2002).
